Measurements reported in ChEMBL document CHEMBL1201862, “PubChem BioAssay data set” (2004).
Activity calls are given as the source filed them.

Legend:
[1] = biological target: Eukaryotic translation initiation factor 4E (Mus musculus, UniProt P63073); test: eIF4E–eIF4G protein interaction inhibitors, dose response, biochemical, TR-FRET (AID 855); type: functional;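 also: potency for disrupting eIF4E binding to eIF4GI seen as loss of FRET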
[2] = biological target: Glucose-6-phosphate 1-dehydrogenase (Homo sapiens, UniProt P11413); test: human G6PD enzyme inhibitors, dose response, selectivity assay for P. falciparum G6PD inhibitor project, biochemical, fluorescence (AID 504792); type: functional
Sequence of Glucose-6-phosphate 1-dehydrogenase (P11413 whole entry, the tested form may be a part): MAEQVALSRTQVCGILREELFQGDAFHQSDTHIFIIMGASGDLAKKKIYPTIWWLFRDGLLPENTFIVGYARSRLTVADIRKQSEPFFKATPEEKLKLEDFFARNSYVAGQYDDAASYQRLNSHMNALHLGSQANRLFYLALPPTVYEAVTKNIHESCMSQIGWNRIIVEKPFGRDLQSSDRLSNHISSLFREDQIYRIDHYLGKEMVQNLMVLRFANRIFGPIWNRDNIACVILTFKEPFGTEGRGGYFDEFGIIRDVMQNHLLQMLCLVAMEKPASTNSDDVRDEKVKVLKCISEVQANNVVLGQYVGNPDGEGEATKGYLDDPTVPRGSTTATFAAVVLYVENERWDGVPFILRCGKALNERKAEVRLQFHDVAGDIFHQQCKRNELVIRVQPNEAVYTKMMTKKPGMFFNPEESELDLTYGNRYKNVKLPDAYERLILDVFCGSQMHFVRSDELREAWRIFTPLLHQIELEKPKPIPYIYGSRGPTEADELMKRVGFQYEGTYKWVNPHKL

[3] = biological target: Perilipin-1/ABHD5 (Homo sapiens, UniProt O60240+Q8WTS1); test: Luminescence-based biochemical high throughput dose response assay for inhibitors of the interaction of the lipase co-activator protein, abhydrolase domain containing 5 (ABHD5) with perilipin-1 (PLIN1) (2K validation set). [Related pubchem assays (depositor defined):AID493027, AID493057]
Sequence of Perilipin-1/ABHD5 (Q8WTS1 whole entry, the tested form may be a part): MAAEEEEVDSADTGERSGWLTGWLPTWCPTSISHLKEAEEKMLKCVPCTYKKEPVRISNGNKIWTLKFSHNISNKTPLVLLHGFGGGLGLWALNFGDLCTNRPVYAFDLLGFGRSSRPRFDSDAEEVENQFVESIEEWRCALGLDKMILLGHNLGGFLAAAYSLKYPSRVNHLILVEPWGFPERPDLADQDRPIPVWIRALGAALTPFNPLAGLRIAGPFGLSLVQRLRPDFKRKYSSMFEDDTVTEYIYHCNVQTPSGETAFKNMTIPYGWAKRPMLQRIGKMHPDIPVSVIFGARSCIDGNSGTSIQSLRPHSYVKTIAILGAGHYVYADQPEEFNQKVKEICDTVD
Sequence of Perilipin-1/ABHD5 (O60240 whole entry, the tested form may be a part): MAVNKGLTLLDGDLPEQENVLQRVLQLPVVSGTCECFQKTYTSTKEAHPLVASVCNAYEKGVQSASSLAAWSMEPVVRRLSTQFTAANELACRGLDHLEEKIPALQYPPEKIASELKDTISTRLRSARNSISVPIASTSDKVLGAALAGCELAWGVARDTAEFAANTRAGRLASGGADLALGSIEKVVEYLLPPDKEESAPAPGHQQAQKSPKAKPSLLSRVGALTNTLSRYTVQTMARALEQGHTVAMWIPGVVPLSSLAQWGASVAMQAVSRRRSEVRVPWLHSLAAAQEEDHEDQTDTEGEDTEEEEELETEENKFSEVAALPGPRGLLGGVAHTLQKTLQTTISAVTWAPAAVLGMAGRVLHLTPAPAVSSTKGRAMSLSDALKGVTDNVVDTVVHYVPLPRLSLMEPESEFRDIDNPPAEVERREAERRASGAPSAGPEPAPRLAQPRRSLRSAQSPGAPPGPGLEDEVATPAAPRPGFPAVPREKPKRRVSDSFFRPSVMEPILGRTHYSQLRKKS

[4] = biological target: T1, Hexokinase-1 (Homo sapiens, UniProt P19367); test: hexokinase 1 activators, dose response, selectivity assay for HKDC1 activator project, biochemical (AID 504762); type: functional
T1 sequence (P19367 whole entry): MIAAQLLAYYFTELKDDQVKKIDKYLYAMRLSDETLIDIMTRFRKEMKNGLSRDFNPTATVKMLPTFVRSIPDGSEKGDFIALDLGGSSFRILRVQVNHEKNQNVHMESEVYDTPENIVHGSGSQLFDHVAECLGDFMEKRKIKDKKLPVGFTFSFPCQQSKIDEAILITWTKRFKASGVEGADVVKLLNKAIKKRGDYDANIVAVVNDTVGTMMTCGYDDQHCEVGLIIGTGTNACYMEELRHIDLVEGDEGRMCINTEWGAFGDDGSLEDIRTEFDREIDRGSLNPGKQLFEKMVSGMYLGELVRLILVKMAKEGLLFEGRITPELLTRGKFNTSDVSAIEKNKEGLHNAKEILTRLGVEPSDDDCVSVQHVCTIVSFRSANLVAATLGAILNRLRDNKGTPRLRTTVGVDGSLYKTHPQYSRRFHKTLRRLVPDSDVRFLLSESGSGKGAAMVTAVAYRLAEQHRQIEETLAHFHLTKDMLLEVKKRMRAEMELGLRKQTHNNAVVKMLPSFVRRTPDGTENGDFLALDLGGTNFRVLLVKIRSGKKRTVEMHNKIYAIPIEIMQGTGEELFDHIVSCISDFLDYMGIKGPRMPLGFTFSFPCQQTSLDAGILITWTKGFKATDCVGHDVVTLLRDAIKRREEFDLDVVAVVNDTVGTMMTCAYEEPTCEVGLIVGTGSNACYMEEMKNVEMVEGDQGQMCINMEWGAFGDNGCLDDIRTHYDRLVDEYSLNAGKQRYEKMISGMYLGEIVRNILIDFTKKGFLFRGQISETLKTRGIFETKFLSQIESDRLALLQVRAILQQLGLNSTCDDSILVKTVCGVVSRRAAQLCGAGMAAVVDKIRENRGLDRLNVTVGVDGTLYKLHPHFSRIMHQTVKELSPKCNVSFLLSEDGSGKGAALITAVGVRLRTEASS

[5] = biological target: Beta-arrestin-1 (Homo sapiens, UniProt P49407); test: inhibitors of arrestin peptide binding to AP2, dose response, biochemical, cherry pick 1, beta2-adaptin appendage, flow cytometry (AID 588783); type: functional
[6] = biological target: 1-acylglycerol-3-phosphate O-acyltransferase ABHD5/Perilipin-5 (Homo sapiens, UniProt Q00G26+Q8WTS1); test: Luminescence-based biochemical high throughput dose response assay for inhibitors of the interaction of the lipase co-activator protein, abhydrolase domain containing 5 (ABHD5) with perilipin-5 (MLDP; PLIN5) (2K validation set). [Related pubchem assays (depositor defined):AID493035, AID493241]
Sequence of 1-acylglycerol-3-phosphate O-acyltransferase ABHD5/Perilipin-5 (Q00G26 whole entry, the tested form may be a part): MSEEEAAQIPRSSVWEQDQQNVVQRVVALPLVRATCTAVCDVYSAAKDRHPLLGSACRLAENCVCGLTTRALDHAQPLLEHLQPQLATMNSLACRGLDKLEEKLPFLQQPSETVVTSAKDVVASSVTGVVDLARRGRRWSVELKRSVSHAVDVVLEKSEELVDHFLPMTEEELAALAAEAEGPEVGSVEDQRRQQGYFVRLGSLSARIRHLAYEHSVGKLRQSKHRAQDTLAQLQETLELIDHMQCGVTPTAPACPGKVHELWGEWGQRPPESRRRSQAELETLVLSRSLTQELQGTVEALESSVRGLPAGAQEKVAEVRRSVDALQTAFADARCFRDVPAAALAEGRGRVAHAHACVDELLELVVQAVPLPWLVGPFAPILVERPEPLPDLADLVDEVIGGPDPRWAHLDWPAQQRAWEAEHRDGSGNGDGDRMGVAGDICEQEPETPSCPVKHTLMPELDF
Sequence of 1-acylglycerol-3-phosphate O-acyltransferase ABHD5/Perilipin-5 (Q8WTS1 whole entry, the tested form may be a part): as the sequence (Q8WTS1 whole entry, the tested form may be a part) above

[7] = biological target: Large T antigen (Simian virus 40, UniProt P03070); type: functional, Betapolyomavirus macacae;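 also: Confirmatory-stage PubChem screen for compounds that inhibit SV40 T antigen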
Sequence of Large T antigen (P03070 whole entry): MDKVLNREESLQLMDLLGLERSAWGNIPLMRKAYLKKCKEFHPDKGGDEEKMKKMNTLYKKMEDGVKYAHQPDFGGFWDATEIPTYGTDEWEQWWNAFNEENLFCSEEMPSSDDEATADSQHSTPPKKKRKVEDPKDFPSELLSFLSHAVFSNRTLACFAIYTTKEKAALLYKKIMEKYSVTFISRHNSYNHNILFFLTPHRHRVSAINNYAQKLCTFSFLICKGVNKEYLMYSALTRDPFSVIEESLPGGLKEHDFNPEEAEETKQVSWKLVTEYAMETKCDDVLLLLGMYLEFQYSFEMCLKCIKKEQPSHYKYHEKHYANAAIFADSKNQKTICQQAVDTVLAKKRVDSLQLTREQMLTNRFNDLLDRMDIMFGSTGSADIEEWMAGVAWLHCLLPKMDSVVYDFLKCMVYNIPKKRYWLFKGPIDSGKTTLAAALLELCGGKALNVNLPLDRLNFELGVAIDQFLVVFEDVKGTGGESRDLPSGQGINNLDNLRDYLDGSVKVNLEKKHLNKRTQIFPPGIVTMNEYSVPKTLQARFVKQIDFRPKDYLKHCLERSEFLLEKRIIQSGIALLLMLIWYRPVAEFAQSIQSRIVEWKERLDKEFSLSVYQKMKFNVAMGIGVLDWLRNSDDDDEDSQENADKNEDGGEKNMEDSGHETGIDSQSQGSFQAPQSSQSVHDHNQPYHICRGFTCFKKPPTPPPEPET

[8] = test system: Streptococcus sp. 'group A'; test: growth inhibition of control SK(-) GAS strain, dose response, counter-screen for streptokinase expression inhibitor project, luminescence, kanamycin, BacTiterGlo, confirmation (AID 1900); type: functional, organism-based; conditions: read-out: EC50
[9] = test system: Streptococcus; test: Group A Streptococcus viability loss, dose response, counter-screen for streptokinase expression inhibitor project, luminescence, BacTiterGlo (AID 1915); type: functional, organism-based;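 also: potency for reduction of bacterial viability or growth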
[10] = biological target: Voltage-gated inwardly rectifying potassium channel KCNH2 (Homo sapiens, UniProt Q12809); conditions: Potency;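 also: confirmatory quantitative high-throughput screen measuring inhibition of hERG channel activity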
Sequence of Voltage-gated inwardly rectifying potassium channel KCNH2 (Q12809 whole entry): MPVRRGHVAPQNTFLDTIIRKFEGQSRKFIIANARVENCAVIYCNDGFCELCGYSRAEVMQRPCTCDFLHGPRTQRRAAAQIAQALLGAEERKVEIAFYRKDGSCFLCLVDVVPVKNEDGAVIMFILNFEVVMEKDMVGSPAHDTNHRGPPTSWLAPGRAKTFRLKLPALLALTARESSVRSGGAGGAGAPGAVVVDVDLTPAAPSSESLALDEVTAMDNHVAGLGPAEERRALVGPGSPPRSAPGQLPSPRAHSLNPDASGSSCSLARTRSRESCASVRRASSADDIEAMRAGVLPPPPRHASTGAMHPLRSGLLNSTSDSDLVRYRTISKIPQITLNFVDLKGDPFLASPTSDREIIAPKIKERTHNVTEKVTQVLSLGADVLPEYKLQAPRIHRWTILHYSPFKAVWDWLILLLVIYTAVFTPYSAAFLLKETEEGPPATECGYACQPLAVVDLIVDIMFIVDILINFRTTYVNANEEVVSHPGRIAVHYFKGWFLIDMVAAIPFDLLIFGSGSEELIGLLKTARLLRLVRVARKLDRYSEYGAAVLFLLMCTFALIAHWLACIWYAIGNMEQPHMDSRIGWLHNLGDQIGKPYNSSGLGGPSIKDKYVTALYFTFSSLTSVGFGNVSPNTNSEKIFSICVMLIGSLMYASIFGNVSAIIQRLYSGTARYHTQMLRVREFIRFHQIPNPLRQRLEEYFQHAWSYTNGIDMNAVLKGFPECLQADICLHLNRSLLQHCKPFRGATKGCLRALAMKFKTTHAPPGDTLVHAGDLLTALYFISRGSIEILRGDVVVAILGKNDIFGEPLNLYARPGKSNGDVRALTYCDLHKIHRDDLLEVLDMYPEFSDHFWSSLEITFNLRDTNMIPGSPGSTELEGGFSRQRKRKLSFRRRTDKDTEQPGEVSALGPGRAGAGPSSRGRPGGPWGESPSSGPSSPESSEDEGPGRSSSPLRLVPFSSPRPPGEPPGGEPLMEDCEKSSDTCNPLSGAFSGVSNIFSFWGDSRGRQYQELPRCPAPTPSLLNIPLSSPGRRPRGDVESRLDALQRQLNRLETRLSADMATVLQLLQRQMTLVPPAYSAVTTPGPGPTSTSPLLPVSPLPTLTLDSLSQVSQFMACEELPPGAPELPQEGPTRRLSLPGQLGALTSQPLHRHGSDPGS

[11] = biological target: T2, Hexokinase HKDC1 (Homo sapiens, UniProt Q2TB90); test: HKDC1 hexokinase activators, dose response, biochemical, W721R variant (AID 504730); type: functional
T2 sequence (Q2TB90 whole entry): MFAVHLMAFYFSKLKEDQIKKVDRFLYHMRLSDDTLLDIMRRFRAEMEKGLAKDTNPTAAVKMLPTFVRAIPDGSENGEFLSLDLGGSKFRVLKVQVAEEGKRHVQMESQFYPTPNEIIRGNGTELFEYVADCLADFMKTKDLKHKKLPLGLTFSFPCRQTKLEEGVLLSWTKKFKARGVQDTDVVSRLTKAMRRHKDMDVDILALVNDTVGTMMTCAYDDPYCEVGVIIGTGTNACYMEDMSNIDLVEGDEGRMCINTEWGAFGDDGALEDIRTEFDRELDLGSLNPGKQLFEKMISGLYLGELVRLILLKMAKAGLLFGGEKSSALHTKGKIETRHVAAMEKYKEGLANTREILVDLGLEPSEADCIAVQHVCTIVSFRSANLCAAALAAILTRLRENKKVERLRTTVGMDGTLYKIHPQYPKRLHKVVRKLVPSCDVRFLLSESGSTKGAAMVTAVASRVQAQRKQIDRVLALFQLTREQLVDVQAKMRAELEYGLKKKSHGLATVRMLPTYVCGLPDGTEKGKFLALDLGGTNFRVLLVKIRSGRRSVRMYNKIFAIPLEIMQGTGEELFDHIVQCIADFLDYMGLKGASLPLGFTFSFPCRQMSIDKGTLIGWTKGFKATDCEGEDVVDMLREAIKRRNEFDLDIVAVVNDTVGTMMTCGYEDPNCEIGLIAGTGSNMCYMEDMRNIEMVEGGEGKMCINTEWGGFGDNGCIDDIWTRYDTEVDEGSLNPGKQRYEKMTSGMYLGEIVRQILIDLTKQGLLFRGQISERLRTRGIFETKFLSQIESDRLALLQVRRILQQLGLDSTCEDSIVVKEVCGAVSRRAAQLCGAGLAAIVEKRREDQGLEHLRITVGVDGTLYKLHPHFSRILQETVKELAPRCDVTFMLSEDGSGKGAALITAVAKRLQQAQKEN

[12] = biological target: Phosphoethanolamine/phosphocholine phosphatase (Homo sapiens, UniProt Q8TCT1); test: SAR assay for compounds that inhibit PHOSPHO1. [Related pubchem assays (depositor defined):AID1545, AID1565, AID1574]
Sequence of Phosphoethanolamine/phosphocholine phosphatase (Q8TCT1 whole entry): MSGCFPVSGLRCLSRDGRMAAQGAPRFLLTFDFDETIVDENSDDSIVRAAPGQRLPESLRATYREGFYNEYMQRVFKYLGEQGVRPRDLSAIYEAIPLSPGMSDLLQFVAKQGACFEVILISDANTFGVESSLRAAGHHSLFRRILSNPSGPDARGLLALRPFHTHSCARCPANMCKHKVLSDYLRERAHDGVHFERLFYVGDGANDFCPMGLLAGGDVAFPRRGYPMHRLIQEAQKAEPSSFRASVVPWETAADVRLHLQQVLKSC

[13] = biological target: sn-1-specific diacylglycerol lipase ABHD11 (Mus musculus, UniProt Q8K4F5); test: Late stage assay provider results from the probe development effort to identify inhibitors of LYPLA1 and LYPLA2: Gel-based Activity-Based Protein Profiling (ABPP) IC50 for off-target ABHD11. [Related pubchem assays (depositor defined):AID2174, AID2202, AID2203, AID2233, AID504482, AID504498, AID504505, AID504507, AID504510, AID504520, AID504522, AID504892]; type: functional
Sequence of sn-1-specific diacylglycerol lipase ABHD11 (Q8K4F5 whole entry): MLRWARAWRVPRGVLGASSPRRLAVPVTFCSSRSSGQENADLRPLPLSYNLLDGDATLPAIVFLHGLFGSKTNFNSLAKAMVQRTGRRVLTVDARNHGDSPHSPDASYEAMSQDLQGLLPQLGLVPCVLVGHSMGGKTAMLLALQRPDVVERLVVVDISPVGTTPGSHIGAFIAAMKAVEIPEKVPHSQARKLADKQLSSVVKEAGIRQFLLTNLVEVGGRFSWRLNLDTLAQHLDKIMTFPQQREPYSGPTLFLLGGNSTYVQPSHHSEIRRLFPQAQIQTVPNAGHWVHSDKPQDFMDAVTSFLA

[14] = cytotoxicity dependent on PAX8, dose response, cell-based, plate reader, dry powder (AID 743049); type: functional
[15] = biological target: T3, Microphthalmia-associated transcription factor (Homo sapiens, UniProt O75030); test: TRPM1 promoter luciferase signal decrease, dose response, MITF inhibitor project, cell-based, SK-MEL-5, cherry-picked, set 3 (AID 493073); type: functional
T3 sequence (O75030 whole entry): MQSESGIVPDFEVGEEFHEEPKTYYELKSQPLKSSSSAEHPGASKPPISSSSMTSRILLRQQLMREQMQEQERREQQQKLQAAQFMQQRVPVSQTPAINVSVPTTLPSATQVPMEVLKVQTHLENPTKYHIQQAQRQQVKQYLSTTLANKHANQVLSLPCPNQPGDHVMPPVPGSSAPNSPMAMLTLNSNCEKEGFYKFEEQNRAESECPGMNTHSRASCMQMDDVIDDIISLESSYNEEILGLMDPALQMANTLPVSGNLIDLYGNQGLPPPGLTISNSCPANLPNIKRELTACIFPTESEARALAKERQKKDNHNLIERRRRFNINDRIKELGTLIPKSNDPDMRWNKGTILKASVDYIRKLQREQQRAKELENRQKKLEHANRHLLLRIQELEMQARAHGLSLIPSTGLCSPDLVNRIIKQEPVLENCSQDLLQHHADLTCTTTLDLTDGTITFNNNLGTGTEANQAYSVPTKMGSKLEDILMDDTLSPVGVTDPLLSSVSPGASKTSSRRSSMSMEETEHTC

[16] = cytotoxicity in OV-90 ovarian cancer cells, dose response, PAX8 inhibitor project, cell-based, plate reader, dry powder, SA8 (AID 743149); type: functional
[17] = cytotoxicity in COV434 cells, dose response, cytotoxicity control for PAX8 inhibitor project, cell-based, plate reader, dry powder, SA7 (AID 743145); type: functional
[18] = PAX2 cell-based inhibition, dose response, selectivity assay for PAX8 inhibitor project, plate reader, dry powder samples (AID 743048); type: functional;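 also: HEK293 cells carrying a WT1 promoter luciferase reporter driven by expressed Pax2; potency is for inhibition of Pax2 driven reporter signal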
[19] = MC4R antagonists, dose response, counter-screen for LGR2 antagonist project, cell-based, plate reader, cherry pick (AID 743444); type: functional;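 also: transfected HEK 293 cells stimulated with alpha-MSH peptide; potency of inhibitors of the alpha-MSH evoked signal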
[20] = HepG2 cell cytotoxicity, dose response, cytotoxicity control, plate reader, cherry-pick, antagonist series (AID 743416); type: functional, cell-based
[21] = cytotoxicity in COV362 ovarian cancer cells, dose response, cytotoxicity control for PAX8 inhibitor project, cell-based, plate reader, dry powder, SA12 (AID 743144); type: functional
[22] = test system: Jurkat; test: antigen receptor-induced NF-kB inhibitors, dose response, Jurkat, luciferase reporter, luminescence, B- and T-cell (AID 489004); type: functional, cell-based; conditions: Homo sapiens;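 also: NF-kB luciferase reporter Jurkat cells stimulated with PMA plus ionomycin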
[23] = biological target: T4, Heat shock factor protein 1 (Mus musculus, UniProt P38532); test: inhibition of MG132-induced HSE-luciferase signal, confirmation, cell-based, NIH3T3, luminescence, dose retest (AID 2382); type: functional;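 also: NIH3T3 fibroblasts with HSF1-driven luciferase reporter stressed by proteasome inhibitor MG132; luminescence from HSF1-driven luciferase expression after 8 hours of MG132 stress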
T4 sequence (P38532 whole entry): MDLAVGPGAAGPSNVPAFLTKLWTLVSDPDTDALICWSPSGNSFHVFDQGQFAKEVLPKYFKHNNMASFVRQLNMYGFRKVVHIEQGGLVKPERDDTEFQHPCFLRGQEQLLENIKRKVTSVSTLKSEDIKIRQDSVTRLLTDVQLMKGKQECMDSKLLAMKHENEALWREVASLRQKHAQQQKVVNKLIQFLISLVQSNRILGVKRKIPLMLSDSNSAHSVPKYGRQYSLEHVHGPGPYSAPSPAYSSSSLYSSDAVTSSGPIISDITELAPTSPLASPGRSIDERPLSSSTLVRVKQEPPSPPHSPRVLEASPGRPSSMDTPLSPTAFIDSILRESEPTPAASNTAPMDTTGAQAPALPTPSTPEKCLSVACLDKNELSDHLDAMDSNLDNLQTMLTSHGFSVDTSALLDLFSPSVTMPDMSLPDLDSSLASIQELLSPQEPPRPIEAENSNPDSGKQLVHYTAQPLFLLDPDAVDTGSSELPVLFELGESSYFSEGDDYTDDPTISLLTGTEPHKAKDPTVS

[24] = PAX5 activity inhibitors, dose response, selectivity assay for PAX8 inhibitor project, cell-based, plate reader, dry powder samples (AID 743047); type: functional;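 also: HEK293 cells carrying a Pax5 driven CD19 promoter luciferase reporter; potency of inhibitors that lower reporter luminescence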
[25] = IGROV1 ovarian cancer cell cytotoxicity, dose response, PAX8 inhibitor project, plate reader, dry powder samples (AID 743043); type: functional, cell-based; conditions: IGROV-1
[26] = LGR2 antagonists, dose response, cell-based, HEK293, CRE-luciferase reporter, cherry pick, set 2 (AID 743343); type: functional;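 also: transfected cells were stimulated with diluted bursicon conditioned medium after compound addition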
[27] = HEK293 cell cytotoxicity, dose response, cytotoxicity control, plate reader, cherry-picked samples (AID 743446); type: functional, cell-based
[28] = test system: A-375; test: MITF: Counter assay: A375 proliferation Measured in Cell-Based System Using Plate Reader - 2084-03_Inhibitor_Dose_DryPowder_Activity. [Related pubchem assays (depositor defined):AID488944]; type: functional; conditions: Homo sapiens
[29] = cytotoxicity in HEK-293T NF-kB-Luc cells, dose response, cytotoxicity control for B/T-cell NF-kB inhibitor project, cell-based, uHTS hits (AID 489019); type: functional;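 also: IC50 reflects cytotoxicity as loss of cell viability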
[30] = test system: A-375; test: A375 melanoma cell viability reduction, dose response, counter-screen for MITF modulator project, cherry-pick samples, set 2 (AID 540335); type: functional, cell-based; conditions: Homo sapiens
[31] = biological target: Paired box protein Pax-8 (Homo sapiens, UniProt Q06710); test: inhibitors of PAX8-driven TPO luciferase reporter, dose response, RMG-I cells, cherry-pick (AID 687027); type: functional, cell-based;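 also: luciferase reporter driven by Pax8 target thyroperoxidase promoter measured by SteadyGlo luminescence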

Sequence of Eukaryotic translation initiation factor 4E (P63073 whole entry): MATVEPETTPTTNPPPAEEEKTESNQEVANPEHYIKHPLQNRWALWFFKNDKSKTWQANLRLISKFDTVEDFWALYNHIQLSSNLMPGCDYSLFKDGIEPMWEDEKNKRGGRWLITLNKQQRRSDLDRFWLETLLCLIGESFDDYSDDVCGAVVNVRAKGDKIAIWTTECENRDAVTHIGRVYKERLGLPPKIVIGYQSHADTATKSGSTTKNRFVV

In the case of `O=c1c2ccccc2[se]n1-c1ccccc1` [EBSELEN], the IC50 [1] is reported as 1.15 µM (active), the IC50 [2] is reported as 13.2 µM (active) and the IC50 [3] is reported as 3.41 µM (active). For the same compound, the EC50 [4] was 41.9 µM (inactive), the IC50 [5] was 1.52 µM (active) and the IC50 [6] was 1.1 µM (active). The IC50 [7] was 13.9 µM (active), the EC50 [8] was 1.1 µM (active) and the EC50 [9] was 0.975 µM (active). The AC50 [10] was 35.5 µM (inconclusive), the EC50 [11] was 38.8 µM (inactive) and the IC50 [12] was 0.111 µM (active).
For `CC(C)(C)C1CCN(C(=O)n2ncc(C(O)(c3ccccc3)c3ccccc3)n2)CC1`, the IC50 [13] was 0.01 µM (active).
In the case of `O=C(/C=C/c1ccccc1)Nc1cccc(C(=O)O)c1`, the AC50 [14] is reported as 32.2 µM (active), the AC50 [15] is reported as 1.52 µM (active) and the AC50 [16] is reported as > 100 µM (inactive). The AC50 [17] was > 100 µM (inactive), the AC50 [18] was 2.07 µM (active) and the AC50 [19] was 0.592 µM (active). For the same compound, the AC50 [20] was > 52 µM (inactive), the AC50 [21] was 77.2 µM (active) and the IC50 [22] was 1.4 µM (active). For the same compound, the EC50 [23] was 1.73 µM (active), the AC50 [24] was 2.67 µM (active) and the AC50 [25] was 49 µM (active). For the same compound, the AC50 [26] was 0.833 µM (active), the AC50 [27] was > 52 µM (inactive) and the AC50 [28] was > 35 µM (active). For the same compound, the IC50 [29] was > 80 µM (inactive), the AC50 [30] was > 35 µM (active) and the AC50 [31] was 4.06 µM (active).
